Data as given in PubChem BioAssay AID1845197 (Molecular Pharmacology Branch, DTP, NCI, 2023).

System: 349418-098-R tumor spheroid viability
Experiment: Anticancer human tumor 349418-098-R patient-derived lung adenocarcinoma cell line growth inhibition
Details: spheroids with HUVEC and MSC; for IC50: curve of first compound; for viability, T/C: stronger effect = lower value
Outline: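 Single agents and combinations were tested on spheroids built from tumor cells plus HUVEC and hMSC, at half-log dilutions starting at or near clinical Cmax, else 10 microM; final DMSO 0.25% (v/v).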

[1] = second compound 0.003 µM, first compound 0.0316 µM
[2] = second compound 0.003 µM, first compound 0.1 µM
[3] = second compound 0.003 µM, first compound 0.316 µM
[4] = second compound 0.003 µM, first compound 1 µM
[5] = second compound 0.003 µM, first compound 3.16 µM
[6] = second compound 0.003 µM, first compound 10 µM
[7] = second compound 0.00949 µM, first compound 0.0316 µM
[8] = second compound 0.00949 µM, first compound 0.1 µM
[9] = second compound 0.00949 µM, first compound 0.316 µM
[10] = second compound 0.00949 µM, first compound 1 µM
[11] = second compound 0.00949 µM, first compound 3.16 µM
[12] = second compound 0.00949 µM, first compound 10 µM
[13] = second compound 0.03 µM, first compound 0.0316 µM
[14] = second compound 0.03 µM, first compound 0.1 µM
[15] = second compound 0.03 µM, first compound 0.316 µM
[16] = second compound 0.03 µM, first compound 1 µM
[17] = second compound 0.03 µM, first compound 3.16 µM
[18] = second compound 0.03 µM, first compound 10 µM
[19] = second compound 0.0949 µM, first compound 0.0316 µM
[20] = second compound 0.0949 µM, first compound 0.1 µM
[21] = second compound 0.0949 µM, first compound 0.316 µM
[22] = second compound 0.0949 µM, first compound 1 µM
[23] = second compound 0.0949 µM, first compound 3.16 µM
[24] = second compound 0.0949 µM, first compound 10 µM
[25] = second compound 0.3 µM, first compound 0.0316 µM
[26] = second compound 0.3 µM, first compound 0.1 µM
[27] = second compound 0.3 µM, first compound 0.316 µM
[28] = second compound 0.3 µM, first compound 1 µM
[29] = second compound 0.3 µM, first compound 3.16 µM
[30] = second compound 0.3 µM, first compound 10 µM
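Further: spheroids exposed to compound for 7 days before measurement.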
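Wherever viability, T/C is given: percent of vehicle control viability with 100% = DMSO-treated spheroids.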

Row | SMILES | IC50 (second compound 0.003 µM) [nM] | IC50 (second compound 0.00949 µM) [nM] | IC50 (second compound 0.03 µM) [nM] | IC50 (second compound 0.0949 µM) [nM] | IC50 (second compound 0.3 µM) [nM] | viability, T/C [1] [%] | viability, T/C [2] [%] | viability, T/C [3] [%] | viability, T/C [4] [%] | viability, T/C [5] [%] | viability, T/C [6] [%] | viability, T/C [7] [%] | viability, T/C [8] [%] | viability, T/C [9] [%] | viability, T/C [10] [%] | viability, T/C [11] [%] | viability, T/C [12] [%] | viability, T/C [13] [%] | viability, T/C [14] [%] | viability, T/C [15] [%] | other results
1 | CC1COCCN1c1cc(-c2ccnn2C)c2ccnc(-c3ccn[nH]3)c2n1 (stereo not given) + CC[C@@]1(O)C(=O)OCc2c1cc1n(c2=O)Cc2cc3c(CN(C)C)c(O)ccc3nc2-1 | 79 | < 31.6 | < 31.6 | < 31.6 | < 31.6 | 107 | 35.1 | 16 | 15 | 15.6 | 14 | 42.4 | 20.4 | 13.6 | 16.2 | 12.8 | 12 | 13.5 | 11.5 | 9.56 | viability, T/C [16]: 11.4%; viability, T/C [17]: 11.6%; viability, T/C [18]: 10.8%; viability, T/C [19]: 5.41%; viability, T/C [20]: 6.47%; viability, T/C [21]: 5.98%; viability, T/C [22]: 6.27%; viability, T/C [23]: 7.68%; viability, T/C [24]: 8.39%; viability, T/C [25]: 3.23%; viability, T/C [26]: 2.54%; viability, T/C [27]: 2.76%; viability, T/C [28]: 3.58%; viability, T/C [29]: 4.37%; viability, T/C [30]: 5.17%
2 | COc1cc(C)[nH]c(=O)c1CN1CCc2c(Cl)cc(C(OC)C3COC3)c(Cl)c2C1=O (stereo not given) + CC[C@@]1(O)C(=O)OCc2c1cc1n(c2=O)Cc2cc3c(CN(C)C)c(O)ccc3nc2-1 | > 10000 | > 10000 | 5480 | < 31.6 | < 31.6 | 108 | 123 | 104 | 109 | 109 | 114 | 104 | 121 | 100 | 113 | 97.1 | 94.8 | 89.7 | 73.8 | 65.6 | viability, T/C [16]: 71.8%; viability, T/C [17]: 60.1%; viability, T/C [18]: 40.5%; viability, T/C [19]: 19.4%; viability, T/C [20]: 17.1%; viability, T/C [21]: 9.77%; viability, T/C [22]: 16%; viability, T/C [23]: 13.4%; viability, T/C [24]: 8.01%; viability, T/C [25]: 5.42%; viability, T/C [26]: 4.95%; viability, T/C [27]: 4.96%; viability, T/C [28]: 3.5%; viability, T/C [29]: 4.11%; viability, T/C [30]: 5.21%
3 | Cc1cc(C)c(CNC(=O)c2cc(-c3ccc(CN4CCOCC4)cc3)cc3c2cnn3C2CCCC2)c(=O)[nH]1 + CC[C@@]1(O)C(=O)OCc2c1cc1n(c2=O)Cc2cc3c(CN(C)C)c(O)ccc3nc2-1 | 6590 | 5790 | 1030 | < 31.6 | < 31.6 | 98.5 | 97.9 | 94.8 | 92.6 | 89.3 | 27.5 | 93.4 | 95.7 | 88.9 | 84.4 | 71.9 | 31.4 | 73.4 | 75.2 | 62.4 | viability, T/C [16]: 52.7%; viability, T/C [17]: 26.4%; viability, T/C [18]: 8.63%; viability, T/C [19]: 19.2%; viability, T/C [20]: 14.8%; viability, T/C [21]: 8.67%; viability, T/C [22]: 5.66%; viability, T/C [23]: 5.2%; viability, T/C [24]: 4.15%; viability, T/C [25]: 2.97%; viability, T/C [26]: 3.59%; viability, T/C [27]: 3.1%; viability, T/C [28]: 3.16%; viability, T/C [29]: 3.27%; viability, T/C [30]: 3.11%
4 | [2H]c1nc(C)nc([2H])c1-c1cc(NC[C@@H](C)c2cccc3c(C(=O)NC)ccnc23)ncn1 + CC[C@@]1(O)C(=O)OCc2c1cc1n(c2=O)Cc2cc3c(CN(C)C)c(O)ccc3nc2-1 | > 10000 | > 10000 | 7510 | < 31.6 | < 31.6 | 96.3 | 103 | 97.9 | 105 | 102 | 102 | 93.7 | 101 | 98.5 | 100 | 102 | 97.2 | 78.9 | 67.9 | 75.5 | viability, T/C [16]: 71.1%; viability, T/C [17]: 53.9%; viability, T/C [18]: 48.7%; viability, T/C [19]: 13.9%; viability, T/C [20]: 15.4%; viability, T/C [21]: 11.2%; viability, T/C [22]: 13.1%; viability, T/C [23]: 7.36%; viability, T/C [24]: 6.4%; viability, T/C [25]: 4.73%; viability, T/C [26]: 5.56%; viability, T/C [27]: 4.91%; viability, T/C [28]: 4.06%; viability, T/C [29]: 4.8%; viability, T/C [30]: 3.56%
